According to patent publication US20230183243A1, “HETEROARYL DERIVATIVES AND PHARMACEUTICAL COMPOSITION COMPRISING SAME AS ACTIVE INGREDIENT” (VORONOI INC., priority 2019, published 2023):

Experiments:
[1] = test system: MDA-MB-231 cells; assay: Inhibition of proliferation of triple-negative breast cancer cells, CellTiter-Glo; type: cell-based; settings: Homo sapiens, 120 h; MDA-MB-231, cultured for 5 days
Method: Specifically, the following test was performed in order to evaluate the inhibitory activity of the compound according to the present invention against the cell proliferation in triple-negative breast cancer cells (TNBCs).
Cells were seeded in 180 μL of a culture broth at a density of 2,000 to 3,000 cells/well in a white clear bottom 96-well plate (Corning) according to the growth ability of each cell, and then cultured for 24 hours under conditions of 5% CO2 and 37° C. Thereafter, the compound was prepared by diluting a 10 mM stock solution three-fold with 100% DMSO at a total of 12 concentrations so that a peak concentration of the compound was in a range of 10 mM to 0.05 μM, and the diluted compound was then diluted in each cell culture medium so that a final concentration of the compound was in a range of 100 μM to 0.5 nM. 20 μL of a diluted solution diluted with a medium was added to the cell solution in which cells were seeded in the 96-well plate on the previous day so that a final concentration of the diluted solution was in a range of 10 μM to 0.05 nM. Each of the cells was cultured for 5 days. To check cell viability, a mixture provided in a CellTiter-Glo® Luminescent Cell Viability Assay Kit (Promega) was added to each of the cultured cell media, and cultured for another 10 minutes under a condition of 37° C. Then, a degree of luminescence (fluorescence) was measured. A degree of inhibition of the cell growth according to the treatment concentration of each of the compounds was calculated based on the fluorescence of the solvent control cells which were not treated with the compound.

[2] = target: T1, TTK (Homo sapiens, UniProt P33981); assay: TTK enzyme activity, ADP-Glo kinase assay; type: biochemical; set-up: purchased SignalChem T20-10G; settings: purified human TTK, ATP 10 μM, 25° C., 2 hours
T1 sequence (P33981 1-857): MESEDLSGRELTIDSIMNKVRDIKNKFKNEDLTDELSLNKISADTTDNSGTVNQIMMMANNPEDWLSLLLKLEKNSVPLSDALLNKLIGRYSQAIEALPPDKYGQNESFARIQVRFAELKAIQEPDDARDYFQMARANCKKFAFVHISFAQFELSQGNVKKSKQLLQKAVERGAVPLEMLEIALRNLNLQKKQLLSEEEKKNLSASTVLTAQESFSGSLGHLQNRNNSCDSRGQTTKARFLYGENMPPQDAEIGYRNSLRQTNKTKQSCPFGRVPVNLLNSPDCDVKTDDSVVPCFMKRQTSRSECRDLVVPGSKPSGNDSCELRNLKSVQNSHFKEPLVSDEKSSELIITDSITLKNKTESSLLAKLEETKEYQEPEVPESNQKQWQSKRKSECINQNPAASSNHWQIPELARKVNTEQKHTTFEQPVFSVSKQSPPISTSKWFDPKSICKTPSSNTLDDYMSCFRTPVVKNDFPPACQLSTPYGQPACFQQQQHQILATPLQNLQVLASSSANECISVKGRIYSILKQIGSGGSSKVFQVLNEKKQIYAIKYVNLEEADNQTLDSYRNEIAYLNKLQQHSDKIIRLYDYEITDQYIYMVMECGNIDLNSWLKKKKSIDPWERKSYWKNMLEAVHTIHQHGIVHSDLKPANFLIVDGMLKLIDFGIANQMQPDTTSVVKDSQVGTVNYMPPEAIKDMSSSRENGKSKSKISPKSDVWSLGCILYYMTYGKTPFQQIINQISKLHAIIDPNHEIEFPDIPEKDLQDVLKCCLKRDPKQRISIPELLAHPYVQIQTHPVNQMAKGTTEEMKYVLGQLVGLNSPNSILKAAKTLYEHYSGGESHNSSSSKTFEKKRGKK
Method: To evaluate an inhibitory activity of the compound according to the present invention against TTK (MPS1), an experiment was performed as follows.
Each of the Example compounds was reacted with a purified human TTK (SignalChem #T20-10G) enzyme to evaluate an ability to inhibit an enzyme using a method as described below. A composition of 40 mM Tris-HCl (pH 7.4), 20 mM MgCl2, 0.5 mg/mL BSA, and 50 μM DTT was used as a reaction buffer, and all reactions of test substances were performed in the reaction buffer. […] In the test, purified ATP (10 μM) and an enzyme substrate (0.2 μg) were reacted with a human TTK (25 ng) enzyme at 25° C. for 2 hours, and the enzyme activity was determined using an in vitro ADP-Glo™ kinase assay (Promega). […] The degree of inhibition of the enzyme activity according to the treatment concentration of each of the compounds was calculated based on the fluorescence of the enzyme activity of the solvent control which was not treated with the compound.

Row | GI50 [1] [nM] | IC50 [2] [nM] | Compound
1 | < 100 | < 50 | COc1cc(N2CCCC2=O)ccc1Nc1nc(NCC(C)C)c2c(C#N)c[nH]c2n1 [Example 66, 4-(isobutylamino)-2-((2-methoxy-4-(2-oxopyrrolidin-1-yl)phenyl)amino)-7H-pyrrolo[2,3-d] pyrimidine-5-carbonitrile]
2 | < 100 | < 50 | Cn1nccc1-c1ccc(Nc2nc(NC3CCCCC3)c3c(C#N)c[nH]c3n2)c2c1OCCO2 [Example 39, 4-(cyclohexylamino)-2-((8-(1-methyl-1H-pyrazol-5-yl)-2,3-dihydrobenzo[b][1,4]dioxin-5-yl)amino)-7H-pyrrolo[2,3-d] pyrimidine-5-carbonitrile]
3 | 100 to 1000 | 50 to 200 | COc1cc(-c2ccc(CN3CCN(C(C)=O)CC3)cc2)ccc1Nc1nc(NC2CCCC2)c2c(C#N)c[nH]c2n1 [Example 41, 2-((4′-((4-acetylpiperazin-1-yl)methyl)-3-methoxy-[1,1′-biphenyl]-4-yl)amino)-4-(cyclopentylamino)-7H-pyrrolo[2,3-d] pyrimidine-5-carbonitrile]
4 | > 1000 | < 50 | COc1cc(N2CCCC2=O)ccc1Nc1nc(NCC2CCC2)c2c(C#N)c[nH]c2n1 [Example 70, 4-((cyclobutylmethyl)amino)-2-((2-methoxy-4-(2-oxopyrrolidin-1-yl)phenyl)amino)-7H-pyrrolo[2,3-d] pyrimidine-5-carbonitrile]
5 | < 100 | < 50 | Cn1nccc1-c1ccc(Nc2nc(NC3CCC3)c3c(C#N)c[nH]c3n2)c2c1OCCO2 [Example 82, 4-(cyclobutylamino)-2-((8-(1-methyl-1H-pyrazol-5-yl)-2,3-dihydrobenzo[b][1,4]dioxin-5-yl)amino)-7H-pyrrolo[2,3-d] pyrimidine-5-carbonitrile]
6 | < 100 | < 50 | COc1cc(N2CCCC2=O)ccc1Nc1nc(NC2COC2)c2c(C#N)c[nH]c2n1 [Example 73, 2-((2-methoxy-4-(2-oxopyrrolidin-1-yl)phenyl)amino)-4-(oxetan-3-ylamino)-7H-pyrrolo[2,3-d] pyrimidine-5-carbonitrile]
7 | < 100 | < 50 | CNc1nc(Nc2ccc(-c3ccnn3C)c3c2OCCO3)nc2[nH]cc(C#N)c12 [Example 75, 2-((8-(l-methyl-1H-pyrazol-5-yl)-2,3-dihydrobenzo[b][1,4]dioxin-5-yl)amino)-4-(methylamino)-1H-pyrrolo[2,3-d] pyrimidine-5-carbonitrile]
8 | < 100 | 50 to 200 | Cn1nccc1-c1ccc(Nc2nc(NC3CCCC3)c3c(C#N)c[nH]c3n2)c2c1CCO2 [Example 33, 4-(cyclopentylamino)-2-((4-(1-methyl-1H-pyrazol-5-yl)-2,3-dihydrobenzofuran-7-yl)amino)-7H-pyrrolo[2,3-d] pyrimidine-5-carbonitrile]
9 | < 100 | < 50 | COc1cc(N2CCCC2=O)ccc1Nc1nc(NC(C)C)c2c(C#N)c[nH]c2n1 [Example 65, 4-(isopropylamino)-2-((2-methoxy-4-(2-oxopyrrolidin-1-yl)phenyl)amino)-7H-pyrrolo[2,3-d] pyrimidine-5-carbonitrile]
10 | > 1000 | 50 to 200 | CNc1nc(Nc2ccc(N3CCCC3=O)cc2OC)nc2[nH]cc(C(F)(F)F)c12 [Example 51, l-(3-methoxy-4-((4-(methylamino)-5-(trifluoromethyl)-7H-pyrrolo[2,3-d]pyrimidin-2-yl)amino)phenyl) pyrrolidin-2-one]

Second part, the compound before the results:

Row | Compound | GI50 [1] [nM] | IC50 [2] [nM]
11 | COc1cc(-c2ccc(CN3CCN(C(C)=O)CC3)cc2)ccc1Nc1nc(NC2CCCCC2)c2c(C#N)c[nH]c2n1 [Example 23, 2-((4′-((4-acetylpiperazin-1-yl)methyl)-3-methoxy-[1,1′-biphenyl]-4-yl)amino)-4-(cyclohexylamino)-7H-pyrrolo[2,3-d] pyrimidine-5-carbonitrile] | < 100 | 50 to 200
12 | COc1cc(-c2cn(C)nn2)ccc1Nc1nc(NC2CCCCC2)c2c(C#N)c[nH]c2n1 [Example 25, 4-(cyclohexylamino)-2-((2-methoxy-4-(1-methyl-1H-1,2,3-triazol-4-yl)phenyl)amino)-7H-pyrrolo[2,3-d] pyrimidine-5-carbonitrile] | < 100 | 200 to 1000
13 | COc1cc(-c2ccnn2C)ccc1Nc1nc(NCC(C)(C)C)c2c(C#N)c[nH]c2n1 [Example 12, 2-((2-methoxy-4-(1-methyl-1H-pyrazol-5-yl)phenyl)amino)-4-(neopentylamino)-7H-pyrrolo[2,3-d] pyrimidine-5-carbonitrile] | > 1000 | < 50
14 | CCOc1cc(-c2nncn2C)ccc1Nc1nc(NCCS(C)(=O)=O)c2c(C#N)c[nH]c2n1 [Example 14, 2-((2-ethoxy-4-(4-methyl-4H-1,2,4-triazol-3-yl)phenyl)amino)-4-((2-(methylsulfonyl)ethyl)amino)-7H-pyrrolo[2,3-d] pyrimidine-5-carbonitrile] | 100 to 1000 | < 50
15 | COc1cc(-c2cncn2C)ccc1Nc1nc(NC2CCCC2)c2c(C#N)c[nH]c2n1 [Example 30, 4-(cyclopentylamino)-2-((2-methoxy-4-(1-methyl-1H-imidazol-5-yl)phenyl)amino)-7H-pyrrolo[2,3-d] pyrimidine-5-carbonitrile] | < 100 | < 50
16 | CC(=O)N1CCN(Cc2ccc(-c3ccc(Nc4nc(NC5CCCCC5)c5c(C#N)c[nH]c5n4)cc3)cc2)CC1 [Example 21] | 100 to 1000 | 50 to 200
17 | COc1cc(N2CCCC2=O)ccc1Nc1nc(O[C@H]2CC[C@@](C)(O)CC2)c2c(C#N)c[nH]c2n1 [Example 32, 4-(((1s,4s)-4-hydroxy-4-methylcyclohexyl)oxy)-2-((2-methoxy-4-(2-oxopyrrolidin-1-yl)phenyl)amino)-7H-pyrrolo[2,3-d] pyrimidine-5-carbonitrile 2,2,2-trifluoroacetate] | < 100 | < 50
18 | COc1cc(-c2ncnn2C)ccc1Nc1nc(NC2CCCCC2)c2c(C#N)c[nH]c2n1 [Example 26, 4-(cyclohexylamino)-2-((2-methoxy-4-(l-methyl-1H-1,2,4-triazol-5-yl)phenyl)amino)-7H-pyrrolo[2,3-d] pyrimidine-5-carbonitrile] | < 100 | 50 to 200
